Source: EP0338042B1, “COMPOSITION AND METHOD FOR TREATING HEPATITIS VIRUS INFECTIONS USING 1-(2'-DEOXY-2'-FLUORO-BETA-D-ARABINOFURANOSYL)-5-ETHYLURACIL” (priority 1987, dated 1989)
pIC50: −log10 of the molar value. Values after ≈ are worked out from the molar mass of the structure shown. Where two headings read alike, the source gives them in different places.

What was measured:
HBV DNA polymerase [1] = biological target: T1, HBV DNA polymerase (Hepatitis B virus genotype D subtype ayw, UniProt P03156); experiment: Time course of DNA synthesis with triphosphate analogs in place of the natural substrate; assay type: biochemical; conditions: for DNA synthesis with analog substituted for the natural substrate: ara-TTP for dTTP, ara-CTP for dCTP, ACVTP for dGTP; for HBV DNA synthesis after addition of the normal substrate: reaction started with analog instead of normal substrate (ACVTP 5 µM), normal substrate (100 µM dGTP) added after 120 minutes
T1 construct: from tissue; host or cells: serum of an immunosuppressed, HBsAg-positive patient; virions purified on sucrose and CsCl gradients
T1 sequence (P03156 whole entry): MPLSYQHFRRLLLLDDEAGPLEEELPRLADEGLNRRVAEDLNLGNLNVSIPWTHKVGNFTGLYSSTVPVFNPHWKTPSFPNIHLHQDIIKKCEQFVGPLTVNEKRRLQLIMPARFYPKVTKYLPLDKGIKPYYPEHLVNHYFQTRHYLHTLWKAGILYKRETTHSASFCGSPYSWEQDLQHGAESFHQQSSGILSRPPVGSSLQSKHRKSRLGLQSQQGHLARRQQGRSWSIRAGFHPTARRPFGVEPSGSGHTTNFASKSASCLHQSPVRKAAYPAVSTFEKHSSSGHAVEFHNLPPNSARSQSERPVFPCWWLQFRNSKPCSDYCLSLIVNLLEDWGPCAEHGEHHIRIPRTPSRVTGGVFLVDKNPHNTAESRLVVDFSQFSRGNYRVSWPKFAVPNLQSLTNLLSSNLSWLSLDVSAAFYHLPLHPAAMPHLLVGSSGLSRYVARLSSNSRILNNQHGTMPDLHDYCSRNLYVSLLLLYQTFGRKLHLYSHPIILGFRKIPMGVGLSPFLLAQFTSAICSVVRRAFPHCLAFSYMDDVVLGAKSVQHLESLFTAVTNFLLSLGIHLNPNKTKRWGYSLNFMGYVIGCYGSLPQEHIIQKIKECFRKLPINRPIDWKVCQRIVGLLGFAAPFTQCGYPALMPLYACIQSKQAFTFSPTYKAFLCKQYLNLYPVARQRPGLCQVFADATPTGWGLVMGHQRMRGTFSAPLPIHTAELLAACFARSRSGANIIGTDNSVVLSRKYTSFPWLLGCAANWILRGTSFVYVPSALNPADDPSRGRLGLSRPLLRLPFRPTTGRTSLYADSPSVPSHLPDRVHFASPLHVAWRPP
Experimental: (§1) DNA polymerase was assayed as described by Kaplan et al., J. Virol. 12: 995 (1973) with minor modification. The assay was performed in a 50 µl reaction mixture containing 50 mM Tris-HCl pH 7.5, 40 mM MgCl₂, 60 mM NH₄Cl, 100 µM each dATP, dCTP and dGTP, 0.2-0.7 µM [³H] dTTP (30 Ci/mmol), 10 mM 2-mercaptoethanol, 0.5% Nonidet P-40 and enzyme. The reaction was started by addition of the virus particles with 2-mercaptoethanol and Nonidet P 40. Incubation was at 37°C for 1 hour. Acid insoluble radioactive material was collected on a glass fiber filter (GF/C Whatman). Filters were washed 5 times with cold 5% trichloracetic acid containing 10 mM sodium pyrophosphate, then with 95% ethanol. Radioactivity of the dried filter was measured in a liquid scintillation counter.
To determine the effect of the three analogs on viral DNA synthesis, a time course experiment was performed with HBV DNA polymerase. [³H] dATP was used as the labeled substrate. With all four nucleoside triphosphate substrates, the reaction was linear up to 60 mn. […] The substitution of dTTP by BVdUTP permitted the viral DNA synthesis up to 46% of the control after 3 hours of reaction. This value increased to 67% of the optimal activity after 4 h of reaction.
BVdUTP was the most efficient alternate substrate for both enzymes. The DNA synthesized with BVdUTP as alternate substrate was analyzed by agarose gel electrophoresis. Only incomplete filling of the single-stranded region of HBV or WHV DNA was obtained with BVdUTP.
The effect of ACVTP on HBV DNA synthesis was also studied in a time course experiment. [³H] dTTP was the labeled substrate. The reaction was initiated without dGTP or with 5 µm ACVTP instead of dGTP. Under these conditions, no incorporation of [³H] dTMP could be measured. After 120 minutes of reaction, 100 µM of dGTP was added. In the assay without dGTP only, the addition of dGTP increased DNA synthesis as expected. […] By comparison, when the reaction was started with the same proportion of ACVTP (5 µM) and dGTP (100 µM) a significant DNA synthesis was observed. Similar experiments were carried out with ara-ATP and ara-CTP.

WHV DNA polymerase = biological target: T2, WHV DNA polymerase (Woodchuck hepatitis B virus, UniProt P03160); experiment: DNA polymerase assay with purified virus particles; assay type: biochemical; conditions: read-out: ID₅₀ WHV DNA POLYMERASE
T2 construct: The reaction was started by addition of the virus particles with 2-mercaptoethanol and Nonidet P 40; from tissue; host or cells: serum pool of five chronically infected woodchucks (Marmota monax); virions purified on sucrose and CsCl gradients
T2 sequence (P03160 whole entry): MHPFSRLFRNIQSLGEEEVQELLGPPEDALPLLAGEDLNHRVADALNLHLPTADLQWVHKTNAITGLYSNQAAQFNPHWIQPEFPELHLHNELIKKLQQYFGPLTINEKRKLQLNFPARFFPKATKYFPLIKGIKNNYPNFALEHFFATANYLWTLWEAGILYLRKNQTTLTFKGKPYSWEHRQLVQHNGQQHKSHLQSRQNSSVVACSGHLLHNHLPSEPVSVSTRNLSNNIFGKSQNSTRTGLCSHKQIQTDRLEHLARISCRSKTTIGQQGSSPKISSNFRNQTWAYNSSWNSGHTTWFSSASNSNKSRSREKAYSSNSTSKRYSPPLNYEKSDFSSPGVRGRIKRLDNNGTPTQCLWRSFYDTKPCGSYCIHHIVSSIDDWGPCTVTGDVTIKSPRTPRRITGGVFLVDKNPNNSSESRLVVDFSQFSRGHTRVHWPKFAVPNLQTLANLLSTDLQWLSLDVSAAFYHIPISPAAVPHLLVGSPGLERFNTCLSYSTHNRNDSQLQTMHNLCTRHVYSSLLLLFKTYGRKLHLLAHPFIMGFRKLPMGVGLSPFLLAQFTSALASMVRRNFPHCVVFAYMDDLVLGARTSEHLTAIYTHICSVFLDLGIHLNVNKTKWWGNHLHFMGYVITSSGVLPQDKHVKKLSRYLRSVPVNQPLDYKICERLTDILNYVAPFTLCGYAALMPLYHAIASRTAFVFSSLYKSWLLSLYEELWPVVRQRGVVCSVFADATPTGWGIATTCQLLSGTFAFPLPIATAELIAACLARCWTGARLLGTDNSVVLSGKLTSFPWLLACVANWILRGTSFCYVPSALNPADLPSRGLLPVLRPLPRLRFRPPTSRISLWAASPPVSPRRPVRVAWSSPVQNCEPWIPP
From the text: (§2) HBV particles containing DNA polymerase activity were purified from the serum of an immunosuppressed patient, positive for HBsAG. WHV was obtained from a serum pool of five woodchucks (Marmota monax), chronic carriers of the virus. The woodchucks initially imported from Pennsylvania belonged to a colony followed for over one year by serological tests as reported in Hantz et al., J. Virol. Metho. 7: 45-55 (1983). Virus was purified by centrifugation on sucrose and isopycnic CsCl gradients.
as §1
(§3) The relative sensitivities of both enzymes to ACVTP, FIACTP and BVdUTP were compared using an excess of nucleotides. For each inhibitor, the concentration of the corresponding radioactive triphosphate was maintained at 2 to 3 times the Km value while the remaining nucleotides were in great excess (50 µM).

HBV DNA polymerase [2] = biological target: T1, HBV DNA polymerase; experiment: DNA polymerase assay with purified virus particles; assay type: biochemical; conditions: for pIC50: concentration of inhibitor giving a 50% inhibition of DNA polymerase activity, read-out: ID₅₀ HBV DNA POLYMERASE; for relative efficiency as inhibitor of HBV DNA polymerase: excess of nucleotides, similar results with WHV DNA polymerase; for nature of inhibition (Lineweaver-Burk plots): ACVTP, FIACTP, BVdUTP versus dGTP, dCTP, dTTP respectively, similar for WHV DNA polymerase; for ID₅₀ compared with FIACTP (times more): stated for HBV and WHV DNA polymerases
From the text: as §2, §1, §3

[3] = test system: woodchuck hepatitis virus (WHV); experiment: Inhibition of WHV replication in chronically infected woodchucks (DNA polymerase activity); assay type: in vivo, woodchucks (Marmota monax); conditions: for WHV DNA polymerase levels / WHV DNA polymerase levels after cessation of drug administration: other antivirals, dose not given; for virus replication levels: dosages similar to FMAU (2-4 mg/kg per day); for virus replication levels after cessation of treatment: dosages similar to FMAU, soon after cessation
Experimental: All woodchucks bearing chronic active hepatitis virus (Hantz, supra) were administered FMAU twice daily by interperitoneal injections of FMAU in the following dosages:
Studies were then undertaken to evaluate FMAU and FEAU in this animal model using woodchucks naturally chronically-infected with woodchuck hepatitis virus (24). It was assumed that these nucleosides would be anabolized to their nucleoside triphosphates within the animal. WHV replication was measured periodically by the endogenous DNA polymerase activity and by the detection of WHV DNA by the dot-blot hybridization assay. Three different dosages of FMAU and FEAU were investigated. FMAU at 2 mg/kg/day x 5, (given intraperitoneally TABLE VIII
In accordance with the procedures of Example 2, the FEAU inhibition of WHV replication was further studied at different doses administered orally to woodchucks through stomach tubes. Two groups of woodchucks with different initial WHV replication values were examined.
Seven woodchucks with high WHV replication were tested. High replication was defined as over 1000 counts per minute of DNA polymerase activity, and the mean replication was 1600.
Seven woodchucks with low WHV replication were tested. Low replication was defined as lower than 1000 counts per minute of DNA polymerase activity, and the mean replication was 600-800.

physchem = experiment: physchem
From the text: Ongoing testing of woodchucks bearing hepatitis virus is being conducted with the following additional pyrimidine nucleoside compounds: FIAC (2′-fluoro-2′-deoxy-arabinosyl-5-iodoocytosine) and FIAU (2′-fluoro-2′-deoxy-arabinosyl-5-iodouracil). As with FMAU, water is the preferred carrier.
If necessary, the solubility of the compounds FMAU, FIAC, and FIAU may be increased by adding acid or base to the aqueous solvent.

HSV-2 (STRAIN G) = conditions: cited from earlier work; for MDD: twice a day for 4 days from 5 hr after inoculation, calculated on day 21; for % SURVIVORS: twice a day for 4 days; for %WT GAIN ON DAY 7 / %WT GAIN ON DAY 14 / %WT GAIN ON DAY 21 / %WT GAIN ON DAY 30: compared to day 1
[4] = concentration of inhibitor giving a 50% inhibition of DNA polymerase activity

In the case of `Nc1ccn([C@@H]2O[C@H](COP(=O)(O)OP(=O)(O)OP(=O)(O)O)[C@@H](O)[C@@H]2O)c(=O)n1` [ara-CTP], the “DNA synthesis with analog substituted for the natural substrate” value (“DNA synthesis with analog substituted” below) (HBV DNA polymerase [1]) was “no significant incorporation”, the “HBV DNA synthesis after addition of the normal substrate” value (“HBV DNA synthesis after addition” for short) (HBV DNA polymerase [1]) was “increased the HBV DNA synthesis” and the pIC50 (WHV DNA polymerase; [4]) was 5.92. The pIC50 (HBV DNA polymerase [2]) was 5.96 and the “relative efficiency as inhibitor of HBV DNA polymerase” value (HBV DNA polymerase [2]) was “least efficient”.
`Cc1cn([C@@H]2O[C@H](COP(=O)(O)OP(=O)(O)OP(=O)(O)O)[C@@H](O)[C@@H]2F)c(=O)[nH]c1=O` [FMAU-TP] showed a pIC50 (WHV DNA polymerase) of 7.30 and a pIC50 (HBV DNA polymerase [2]) of 7.60.
With `Cc1cn([C@@H]2O[C@H](COP(=O)(O)OP(=O)(O)OP(=O)(O)O)[C@@H](O)[C@@H]2O)c(=O)[nH]c1=O` [ara-TTP] the “DNA synthesis with analog substituted” value (HBV DNA polymerase [1]) was “no significant DNA synthesis”, the pIC50 (WHV DNA polymerase; [4]) was 6.40 and the pIC50 (HBV DNA polymerase [2]) was 6.52.
With `Nc1ncc2ncn(COCCO)c2n1` [6-deoxy-acyclovir] the “WHV DNA polymerase levels” value [3] was “diminished” and the “WHV DNA polymerase levels after cessation of drug administration” value [3] was “rebounded to pretreatment levels”.
With `Nc1nc(=O)n([C@@H]2O[C@H](CO)[C@@H](O)[C@@H]2F)cc1I` [FIAC, 1-(2'-deoxy-2'-fluoro-beta-D-arabinofuranosyl)-5-iodocytosine] the solubility (physchem; aqueous hydrochloric acid) was roughly 250 mg/mL (≈ 674 mM) and the “toxicity (previous results)” value ([3]; woodchucks, previous results) was “lethal toxicity”.
For `Nc1nc2c(ncn2COC(CO)CO)c(=O)[nH]1` [DHPG], the “WHV DNA polymerase levels” value [3] was “diminished” and the “WHV DNA polymerase levels after cessation of drug administration” value [3] was “rebounded to pretreatment levels”.
For `CCc1cn([C@H]2C[C@H](O)[C@@H](CO)O2)c(=O)[nH]c1=O` [EDU, 5-ethyl-2′-deoxyuridine, reference compound], the MDD (HSV-2 (STRAIN G); EDU 800 MG/KG/DAY) is listed as 7.6, the “% SURVIVORS” value (HSV-2 (STRAIN G); EDU 800 MG/KG/DAY) is listed as 13% and the “%WT GAIN ON DAY 7” value (HSV-2 (STRAIN G); EDU 800 MG/KG/DAY) is listed as -10%. The “%WT GAIN ON DAY 14” value (HSV-2 (STRAIN G); EDU 800 MG/KG/DAY) was -6%, the “%WT GAIN ON DAY 21” value (HSV-2 (STRAIN G); EDU 800 MG/KG/DAY) was 2% and the “%WT GAIN ON DAY 30” value (HSV-2 (STRAIN G); EDU 800 MG/KG/DAY) was 6%. The MDD (HSV-2 (STRAIN G); EDU 1000 MG/KG/DAY) was 8.6, the “% SURVIVORS” value (HSV-2 (STRAIN G); EDU 1000 MG/KG/DAY) was 33% and the “%WT GAIN ON DAY 7” value (HSV-2 (STRAIN G); EDU 1000 MG/KG/DAY) was 3%. For the same compound, the “%WT GAIN ON DAY 14” value (HSV-2 (STRAIN G); EDU 1000 MG/KG/DAY) was 13%, the “%WT GAIN ON DAY 21” value (HSV-2 (STRAIN G); EDU 1000 MG/KG/DAY) was 34% and the “%WT GAIN ON DAY 30” value (HSV-2 (STRAIN G); EDU 1000 MG/KG/DAY) was 43%.
In the case of `O=c1[nH]c(=O)n([C@@H]2O[C@H](CO)[C@@H](O)[C@@H]2F)cc1I` [FIAU, 2′-fluoro-2′-deoxy-arabinosyl-5-iodouracil], the solubility (physchem) was “increased many fold”.
For `Nc1nc2c(ncn2COCCO)c(=O)[nH]1` [acyclovir], the virus replication levels [3] was “diminished” and the “virus replication levels after cessation of treatment” value [3] was “rebounded to pretreatment levels”.
In the case of `O=c1[nH]c(=O)n([C@H]2C[C@H](O)[C@@H](COP(=O)(O)OP(=O)(O)OP(=O)(O)O)O2)cc1/C=C/Br` [BVdUTP], the pIC50 (WHV DNA polymerase; [4]) was 6.52, the “nature of inhibition (Lineweaver-Burk plots)” value (“nature of inhibition” for short) (HBV DNA polymerase [2]) was “competitive” and the pIC50 (HBV DNA polymerase [2]) was 6.60. The “ID₅₀ compared with FIACTP (times more)” value (HBV DNA polymerase [2]) was 5 times.
For `Nc1ncnc2c1ncn2[C@@H]1O[C@H](COP(=O)(O)OP(=O)(O)OP(=O)(O)O)[C@@H](O)[C@@H]1O` [ara-ATP], the “HBV DNA synthesis after addition” value (HBV DNA polymerase [1]) was “increased the HBV DNA synthesis”.
In the case of `Nc1ncnc2c1ncn2[C@@H]1O[C@H](COP(=O)(O)O)[C@@H](O)[C@@H]1O` [ara-AMP], the virus replication levels [3] was “diminished”, the “virus replication levels after cessation of treatment” value [3] was “rebounded to pretreatment levels” and the “WHV DNA polymerase levels” value [3] was “diminished”. For the same compound, the “WHV DNA polymerase levels after cessation of drug administration” value [3] was “rebounded to pretreatment levels”.
In the case of `Nc1nc2c(ncn2COCCOP(=O)(O)OP(=O)(O)OP(=O)(O)O)c(=O)[nH]1` [ACVTP], the “DNA synthesis with analog substituted” value (HBV DNA polymerase [1]) was “did not increase the polymerization process”, the “HBV DNA synthesis after addition” value (HBV DNA polymerase [1]) was “no DNA synthesis was observed” and the pIC50 (WHV DNA polymerase; [4]) was 6.15. The “nature of inhibition” value (HBV DNA polymerase [2]) was “competitive”, the pIC50 (HBV DNA polymerase [2]) was 6.05 and the “ID₅₀ compared with FIACTP (times more)” value (HBV DNA polymerase [2]) was 18 times.
With `Nc1nc(=O)n([C@@H]2O[C@H](COP(=O)(O)OP(=O)(O)OP(=O)(O)O)[C@@H](O)[C@@H]2F)cc1I` [FIACTP] the pIC50 (WHV DNA polymerase; [4]) was 7.00, the “nature of inhibition” value (HBV DNA polymerase [2]) was “competitive” and the “relative efficiency as inhibitor of HBV DNA polymerase” value (HBV DNA polymerase [2]) was “most efficient inhibitor”.
